Eight molecules from patent US20260200892A1, “CANNABINOID RECEPTOR 2 MODULATORS” (Hoffmann-La Roche Inc., priority 2023, published 2026) can be followed below.

In one assay the target is hCB1R (Homo sapiens, UniProt P21554). The assay can be described thus: hCB1R binding (Kd hCB1R, Table 1).
For assay [1], the target named is T1, human CB2 receptor (hCB2R) (Homo sapiens, UniProt P34972).
T1 construct: expressed in transfected cells; membranes
The assay can be described thus: TR-FRET hCB2R binding assay. The note with it: TR-FRET, membranes of SNAP-tagged human CB2R HEK293-TR cells, 100 μM GppNHp, nonspecific binding with SR144528; read-out: Kd hCB2R. Background: TR-FRET usually uses a lanthanide donor and a delayed reading to cut background.

In assay [2] the target is T2, CB2 receptor (hCB2R), CHO cell line stably overexpressing CB2 receptor (Homo sapiens, UniProt P34972).
T2 construct: expressed in transfected cells; host or cells: CHO cell line stably overexpressing CB2 receptor (G418 selection)
The assay can be described thus: cAMP hCB2R functional assay (HTRF). It counts as cell-based. The note with it: CHO cells overexpressing CB2 receptor, forskolin; for EC50: means ± SEM of 2-3 independent experiments; for Functionality: normalized to Emax of CP55940 (100%). On the procedure: cAMP hCB2R Functional Assay
The Homogeneous Time Resolved Fluorescence (HTRF) Assays
The homogeneous time-resolved fluorescence (HTRF) cAMP assay was conducted according to the manufacturer's protocol for the cAMP-Gs Dynamic kit (Cisbio). Briefly, the CHO cell line stably overexpressing CB2 receptor were maintained in Ham's F12 supplemented with 10% FBS, 100 U/ml penicillin and 100 μg/ml streptomycin (Gibco-ThermoFisher) and 400 μg/ml G418 (ThermoFisher). For CB2 compounds test, harvest the cells with Cell Dissociation Buffer and re-suspend the cells in F-12 K at 0.4*10^6 cells/mL, and dispense cells into 384-well low volume plates at 2000 cells/5 μL per well. The cells were stimulated with compounds diluted in Stimulation Buffer (2.5 μL/well) for 15 min at room temperature. And then followed by the addition of 2.5 μL 25 μM forsklin. After 15 mins incubation, reactions were stopped by 5 μL/well cAMP-d2 conjugate working solution followed by 5 μL/well of anti-cAMP cryptate working solution. After incubation for 1 h at room temperature, the plates were read in a PerkinElmer Envision reader for time-resolved fluorescence resonance energy transfer detection at 620 nm and 665 nm.
Quantification and Statistical Analysis
All HTRF ratio data sets of test compounds were normalized to the Emax of CP55940 (100%) and obtained the means±standard error of the mean (SEM) of 2-3 independent experiments performed in technical replicates.

By Kd is commonly meant a measure of binding affinity in units of concentration. Broadly, the EC50 is the concentration needed to bring the measured effect to its halfway point.

Sequence of hCB1R (P21554 whole entry): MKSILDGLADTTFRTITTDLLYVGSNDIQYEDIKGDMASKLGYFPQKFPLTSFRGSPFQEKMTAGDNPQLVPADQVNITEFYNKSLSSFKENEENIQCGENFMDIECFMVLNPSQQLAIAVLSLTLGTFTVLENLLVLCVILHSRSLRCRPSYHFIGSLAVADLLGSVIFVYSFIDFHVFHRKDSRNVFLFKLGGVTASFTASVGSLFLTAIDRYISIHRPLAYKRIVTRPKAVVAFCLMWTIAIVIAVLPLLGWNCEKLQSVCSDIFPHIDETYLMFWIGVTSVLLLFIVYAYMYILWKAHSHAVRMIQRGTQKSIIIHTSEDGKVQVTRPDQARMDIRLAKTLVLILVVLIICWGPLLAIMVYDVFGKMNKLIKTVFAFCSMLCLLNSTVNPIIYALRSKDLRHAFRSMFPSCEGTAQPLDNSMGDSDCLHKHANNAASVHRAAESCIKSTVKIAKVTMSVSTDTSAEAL
T1 sequence (P34972 whole entry): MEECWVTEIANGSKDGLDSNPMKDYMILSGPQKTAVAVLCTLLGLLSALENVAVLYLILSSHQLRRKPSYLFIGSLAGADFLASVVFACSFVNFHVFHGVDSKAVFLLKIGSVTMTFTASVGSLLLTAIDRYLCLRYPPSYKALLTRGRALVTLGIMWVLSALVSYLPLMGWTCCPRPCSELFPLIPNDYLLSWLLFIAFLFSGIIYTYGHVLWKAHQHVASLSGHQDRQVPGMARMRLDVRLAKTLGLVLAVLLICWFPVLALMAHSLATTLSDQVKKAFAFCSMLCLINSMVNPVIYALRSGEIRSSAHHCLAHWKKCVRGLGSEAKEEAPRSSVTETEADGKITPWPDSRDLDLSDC
T2 sequence (P34972 whole entry): as above

Turning to `CCCCC[C@H](c1cccc(F)c1)C(C)(C)c1cc(OC)c([C@H]2C=C(CO)[C@H]3C[C@@H]2C3(C)C)c(OC)c1` [Example 11, ((1S,4S,5S)-4-(4-((R)-3-(3-fluorophenyl)-2-methyloctan-2-yl)-2,6-dimethoxyphenyl)-6,6-dimethylbicyclo[3.1.1]hept-2-en-2-yl)methanol], on hCB1R, the affinity, expressed as Kd, was 2690 nM. Moreover, the Kd in assay [1] turned out to be 355 nM. Also, in assay [2], the EC50 is 2340 nM and the Functionality entry is recorded as “inverse agonist”.

For the molecule `CCCCC[C@@H](c1ccccc1)C(C)(C)c1cc(OC)c([C@H]2C=C(CO)[C@H]3C[C@@H]2C3(C)C)c(OC)c1` [Example 8, ((1S,4S,5S)-4-(2,6-dimethoxy-4-((S)-2-methyl-3-phenyloctan-2-yl)phenyl)-6,6-dimethylbicyclo[3.1.1]hept-2-en-2-yl)methanol], the Kd is 716 nM on hCB1R and 4.5 nM in assay [1]. In assay [2], this molecule had an EC50 of 302 nM. For the same molecule, the Functionality result in assay [2] is on record as “inverse agonist”.

On hCB1R, `CCCCC[C@H](c1ccccc1)C(C)(C)c1cc(OC)c([C@H]2C=C(CO)[C@H]3C[C@@H]2C3(C)C)c(OC)c1` [Example 7, ((1S,4S,5S)-4-(2,6-dimethoxy-4-((R)-2-methyl-3-phenyloctan-2-yl)phenyl)-6,6-dimethylbicyclo[3.1.1]hept-2-en-2-yl)methanol] came in with a dissociation constant (Kd) of 1040 nM. The dissociation constant Kd in assay [1] came to 197 nM. For the same molecule, in assay [2], the EC50 is 417 nM and the Functionality result is reported as “inverse agonist”.

On to `CCCCC[C@@H](CC)C(C)(C)c1cc(OC)c([C@H]2C=C(CO)[C@H]3C[C@@H]2C3(C)C)c(OC)c1` (single isomer, unassigned) [Example 4], for which the Kd worked out at 2190 nM at hCB1R and 0.97 nM in assay [1]. Also, the Functionality entry in assay [2] was “antagonist”.

With `CCCCC[C@@H](c1cccc(F)c1)C(C)(C)c1cc(OC)c([C@H]2C=C(CO)[C@H]3C[C@@H]2C3(C)C)c(OC)c1` [Example 12, ((1S,4S,5S)-4-(4-((S)-3-(3-fluorophenyl)-2-methyloctan-2-yl)-2,6-dimethoxyphenyl)-6,6-dimethylbicyclo[3.1.1]hept-2-en-2-yl)methanol], the Kd on hCB1R stood at 1950 nM; in assay [1] it was 30 nM. The EC50 in assay [2] was 209 nM. For the same molecule, the Functionality result in assay [2] is on record as “inverse agonist”.

For the molecule `COc1cc(C(C)(C)[C@H](CCCCCN=[N+]=[N-])c2ccccc2)cc(OC)c1[C@H]1C=C(CNC(=O)CCCCCCNc2ccc([N+](=O)[O-])c3nonc23)[C@H]2C[C@@H]1C2(C)C` [Example 24, N-(((1S,4S,5S)-4-(4-((R)-8-azido-2-methyl-3-phenyloctan-2-yl)-2,6-dimethoxyphenyl)-6,6-dimethylbicyclo[3.1.1]hept-2-en-2-yl)methyl)-7-((7-nitrobenzo [c][1,2,5]oxadiazol-4-yl)amino)heptanamide], the Kd at hCB1R amounted to 840 nM. In addition, in assay [1], the dissociation constant Kd was determined as 12.3 nM. Also, in assay [2], the half-maximal effective concentration (EC50) is 1230 nM and the Functionality entry was “inverse agonist”.

With `CCCCCC(CCC)C(C)(C)c1cc(OC)c([C@H]2C=C(CO)[C@H]3C[C@@H]2C3(C)C)c(OC)c1` (stereo partly drawn) [Example 5, ((1S,4S,5S)-4-(2,6-dimethoxy-4-(2-methyl-3-propyloctan-2-yl)phenyl)-6,6-dimethylbicyclo[3.1.1]hept-2-en-2-yl)methanol], the Kd on hCB1R was 6740 nM. For the same molecule, the Kd in assay [1] was 74 nM. In assay [2], a half-maximal effect (EC50) was put at 112 nM and the Functionality entry was “inverse agonist”.

Turning to `CCCCC[C@@H](C(F)(F)F)C(C)(C)c1cc(OC)c([C@H]2C=C(CO)[C@H]3C[C@@H]2C3(C)C)c(OC)c1` [Example 1, ((1S,4S,5S)-4-(2,6-dimethoxy-4-((R)-2-methyl-3-(trifluoromethyl)octan-2-yl)phenyl)-6,6-dimethylbicyclo[3.1.1]hept-2-en-2-yl)methanol], the Kd stood at 11800 nM at hCB1R and 606 nM in assay [1]. For the same molecule, the Functionality result in assay [2] was “antagonist”.
